One series has as its system global protein synthesis. Briefly: Puromycin incorporation assay. Format: cell-based, rat. Particulars: compound alone. The procedure: (§1) Cultured neurons (DIV 9-10) were washed once with cold 1×PBS and lysed in cell lysis buffer (20 mM Tris-HCl (pH 7.5), 150 mM NaCl, 1 mM Na2EDTA, 1 mM EGTA, 1% Triton™, 2.5 mM sodium pyrophosphate, 1 mM beta-glycerophosphate, 1 mM Na3VO4, 1 μg/ml leupeptin supplemented with protease inhibitor). The lysates were centrifuged at 10,000 RPM for 15 mins at 4° C. to separate the chromatin-bound and soluble fractions. Lysates were quantified using Bio-Rad™ Protein Assay and equal amounts of protein were loaded onto a 4 to 12% gradient gel (Invitrogen™ NuPAGE™). Protein was transferred from the gel to 0.2 μm NC membranes at 25 V for 10 mins using transfer stacks (iBlot™ 2-Invitrogen™) and blocked with 5% non-fat milk in TBST (10 mM Tris-HCl pH 8.0, 150 mM NaCl, 0.01% Tween-20) for 1 hr before application of primary antibodies. Primary and secondary antibodies were incubated overnight at 4° C. and for 1 hr at room temperature, respectively. Immobilon® ECL Ultra Western HRP Substrate (WBULS0500, Millipore™) and a luminescent image analyzer (ChemiDoc™ Imaging System, Bio-Rad™) were used to detect proteins. Quantification of western blots was done using ImageJ (Version 1.53c).

Another series deals with HPF1. Kind of series: HPF1 levels immunoblot in cortical neurons. Particulars: compound alone. The format is cell-based, rat. The procedure:
FIG. 5A presents immunoblots showing the protein levels of HPF1 in rat cortical neurons (DIV9-10) after treatment with Tyr ([…]) for up to 8 hr.
as §1
Background: A western blot detects proteins with antibodies after separation by electrophoresis.

The next series concerns PARP1. Kind of series: Auto-PARylation of PARP1 immunoblot. The format is cell-based, rat.
For a further series, the system named is AcK56-H3. Particulars: humans, 500 mg/day dosing; cited from earlier work.
The next series deals with cortical neurons. Briefly: Neurite degeneration (MAP2 staining). The following applies: agent alone. The format is cell-based, rat. The protocol: The neurite degeneration index was calculated. Samples were imaged using ImageXpress® Micro 4 at a magnification of 10× to capture the entire field of interest. The samples analyzed for neurite degeneration were stained using the standard immunofluorescence procedure with MAP2 (Alexa Fluor® 647) for neurites and DAPI staining for the nucleus. Neurite degeneration was quantified using 5-6 regions of interest of equal sizes from each treatment condition. The analysis of neurite degeneration was done using ImageJ. The fluorescent images for MAP2 staining were binarized, so that pixel intensity of regions corresponding to neurite staining was converted to black, and all other regions were converted to white. Healthy intact neurites show a continuous tract, whereas degenerated axons have a particulate structure due to fragmentation or beading. To detect degenerated neurites, the particle analyzer module of ImageJ was used. The percentage of the area of the small fragments or particles (size=3-10 μm^2) to the intact neurites (size >25 μm^2) with information derived from the binary images was calculated. A degeneration index (DI) was calculated as the fragmented neurite area ratio over the intact neurite area.

For the next series, the system named is monosomes. Kind of series: Monosome formation in cortical neurons. The following applies: compound alone. Format: cell-based, rat.
Series [1] concerns association of raptor with Rab7a. Kind of series: Raptor / Rab7a immunoprecipitation. The format is cell-based, rat. An excerpt: FIG. 19C presents cis-RSV-mediated recruitment of raptor to Rab7a-coated late endosomes.

Molecules are shown by their SMILES.

As to `Oc1ccc(/C=C/c2cc(O)cc(O)c2)cc1` [trans-RSV, trans-resveratrol], the “global protein synthesis (puromycin incorporation)” value in the series on global protein synthesis is listed as “inhibited global protein synthesis”. The HPF1 levels result with HPF1 is given as “decreased HPF1 levels”. For the same compound, the “auto-PARylation of PARP1” value with PARP1 (higher concentrations of trans-RSV (≥25 mM)) is listed as “inhibit the auto-PARylation of PARP1”; with PARP1 (low concentration of trans-RSV, converted to cis-RSV in solution), “stimulates the auto-PARylation of PARP1”. Also, the “acetylation of H3 at lysine 56 (AcK56-H3)” value in the series with AcK56-H3 was “inhibited the acetylation of H3 at lysine 56”.
`N[C@@H](Cc1ccc(O)cc1)C(=O)O` [tyrosine, L-tyrosine]: the HPF1 levels result in the series with HPF1 is recorded as “decreased HPF1 levels”. Besides, the neurite degeneration entry with cortical neurons is recorded as “did not induce neurite degeneration”.
On to `Oc1ccc(/C=C\c2cc(O)cc(O)c2)cc1` [cis-RSV, cis-resveratrol], for which the monosome formation entry with monosomes is “stimulate the formation of monosomes”. Besides, in series [1], the “association of raptor with Rab7a” value is listed as “increases the association of raptor with Rab7a”.

Source of the values: US20250241878A1, “TYROSINE AND RESVERATROL DERIVATIVES AS NOVEL MODULATORS OF CELLULAR SERINE ADP-RIBOSYLATION” (UNIVERSITY OF SOUTH CAROLINA, priority 2022, published 2025).
